{"source": "patent US20240408175A1", "about": "“BMP9 OR AN AGONIST THEREOF AND ITS USES RELATED TO REDUCING METASTASIS OF CANCER” (THE UAB RESEARCH FOUNDATION, priority 2021, published 2024)", "key": {"HEY-T30 cells": {"system": "HEY-T30 cells", "assay": "Flow cytometry, Annexin V / PI apoptosis", "type": "cell-based, human", "details": "3D, 48 hours; 10 nM BMP9, 300 nM paclitaxel or combination", "description": "700,000 cells were seeded in 60 mm poly-hema coated culture dishes, followed by incubation with 300 nM paclitaxel and 10 nM BMP9 alone or in simultaneous combination for 48 hours. Cells were centrifuged and resuspended in 1×binding buffer, followed by incubation with Annexin V and PI according to the manufacturer's procedure manual. The stained cell suspension was added to FACS tubes containing 200 μl 1×binding buffer and measured by BD LSRFortessa flow cytometer. The data were analyzed using BD FACSDiva (Becton Dickinson, NJ, USA) software. Annexin V-positive and PI-negative cells were considered to be in the early apoptotic phase, Annexin V-negative and PI-positive cells were considered to be in the necrosis phase, cells having positive staining for both Annexin-V and PI were considered to undergo late apoptosis and cells negative for Annexin V and PI were considered to be live cells."}, "SOX2": {"system": "SOX2", "assay": "SOX2 levels in xenograft tumors (IHC, qRT-PCR)", "type": "in vivo", "details": "IHC and qRT-PCR, vs vehicle control-treated mice", "description": "IHC was performed using the BioCare Mach4 Universal Detection Kit. Specifically, anti-SOX2 was diluted in Da Vinci Green Diluent and incubated overnight at 4° C. in a humidified chamber. HRP was detected with 3,30-diaminobenzidine (DAB) substrate for 4 minutes. TUNEL staining was performed according to the manufacturer's instruction. Slides were examined and images captured with EVOS M7000 microscope. Cell profiler (Stirling et al., 2021) and Image J Fiji software were used for image quantification."}, "OCT4 or NANOG": {"system": "OCT4 or NANOG", "assay": "qRT-PCR of OCT4 and NANOG under 3D condition", "type": "cell-based, human", "details": "PA1 cells", "description": "Lysate and RNA preparation: 100,000-300,000 cells were seeded in a poly-HEMA coated 6-well plate for indicated times in full serum unless indicated otherwise. Cells were collected by centrifugation and lysed with trizol for RNA extraction or direct 2× lysis buffer for protein lysates."}, "[1]": {"system": "OC cell lines (PA1, OVCA420, OVCAR3, SKOV3, OVCA433)", "assay": "Live/Dead analysis under anchorage independence (anoikis), panel of OC cell lines", "type": "cell-based, human", "details": "10 nM for 24 hours after 48 hours anchorage independence"}, "[2]": {"system": "SOX2 promoter methylation", "assay": "Methylation-specific qPCR of SOX2 promoter", "type": "cell-based, human", "details": "PA1, rhBMP9 24 h", "description": "Genomic DNA was extracted, and bisulfite conversion was performed on 500 ng of gDNA using the MethylAmp DNA modification kit according to manufacturer's instructions. Relative quantitative RT-PCR (qPCR) was performed with methylation-specific and unmethylation-specific primers (see Table 3)."}, "[3]": {"assay": "Overall toxicity of daily i.p. BMP9 (body weight, kidney and liver function tests)", "type": "in vivo", "details": "up to 3 weeks", "description": "All animal studies were performed in accordance with the Institutional Animal Care and Use Committee at the University of Alabama Birmingham. Female SCID mice (Key resources table) at 5-7 weeks of age were housed under pathogen-free conditions at the Animal Research Facility at UAB. 1.5×10^6 GFP-luciferase SK-OV3 cells or 3×10^6 GFP-luciferase expressing PA1 cells were intraperitoneally injected. Mice were monitored daily, with girth and weight measurement taken twice a week. Tumor progression was tracked weekly using the IVIS Lumina III In vivo Imaging System (Caliper Life Sciences, MA) at UAB's Small Animal Imaging Facility. rhBMP9 was administered at the time of tumor cell injection followed by daily intraperitoneal (i.p.) injections of 1 mg/mL in 4 mM HCl+PBS+DI water (Vehicle), to achieve a final 5 mg/kg dose. For metastasis and tumor growth analysis, mice were euthanized between 21-50 days depending on the cell line. At necropsy, ascites, if present, were collected and volumes measured when possible, tumor weights in the omentum and other organs were recorded and collected when possible. For survival studies, mice that reached end-point criteria, including continued weight loss, respiratory trouble and permanent recumbency were euthanized. […]"}, "SOX2 promoter": {"system": "SOX2 promoter", "assay": "Chromatin immunoprecipitation (ChIP) at SOX2 promoter regions", "type": "cell-based, human", "description": "ChIP was carried out using a modified version of a previously described protocol (Medeiros et al., 2009). Cells were grown to 80% confluency in 150 mm culture dishes. Cells were fixed at room temperature in 1% Paraformaldehyde solution (dilute 8% PFA in serum free media to get 1%) and rocked for 10 minutes. 10×Glycine was added to the plate and allowed to sit for 5 minutes at room temperature. Cells were scraped down and cell suspension were transferred to a cold centrifuge tube for centrifugation at 720 RCF at 4° C. for 10 minutes. Cells were rinsed with 1X Phosphate buffer saline and centrifugation repeated. Cell pellet was next resuspended in lysis buffers described in (Medeiros et al., 2009) to obtain nuclei pellet. This was followed by chromatin sonication, using QSonica sonicator (model CL-188) for four cycles (30% amplitude for 15 secs ON and 30 secs OFF) to obtain DNA fragments with a length from 150 to 300 bp. 1/10th of the supernatant was stored as input control. ChIP was performed using Protein A magnetic beads (Dynabeads, Invitrogen #10001D) to couple […] ChIP-grade antibodies for SMAD1, SMAD3, H3K27me3, H3K4me3, or rabbit IgG antibody overnight at 4 °C. DNA was purified using the PureLink Quick PCR Purification kit (Thermo Fisher Cat #: K310001) and enrichment of DNA fragments analyzed via relative quantitative RT-PCR (qPCR) using ChIP primers (see Table 2) to specific locations. Negative and positive control regions were included in all analysis."}, "HEY parental cells": {"system": "HEY parental cells", "assay": "Cell survival under anchorage independence, HEY parental", "type": "cell-based, human", "details": "1, 5, 10 nM for 24, 48, and 72 hours", "description": "(§1) For Live/Dead analysis under anchorage independence, 1,000 cells were seeded in 96-well hydrogel-coated ultra-low attachment (ULA) plates (Corning #4515) for times indicated. Growth factor treatment was done under low serum 2.5% FBS condition (Cells were plated in 10% FBS to allow spheroid formation before beginning treatment). Cells were then stained with 2 μM Calcein-AM and 4 μM Ethidium-homodimer for 30 min before imaging. z-stacked images were obtained using the Zeiss LSM700 Confocal microscope (Microscopy and Flow Cytometry Core, University of South Carolina) and NIKON A1 Confocal microscope (UAB High Resolution Imaging Facility). Fluorescent quantification was performed using ImageJ Fiji software to calculate the Corrected Total Cell Fluorescent (CTCF)=Integrated Density−(Area of selected cell×Mean fluorescence of background readings) per spheroid."}, "A2780ip2 cells": {"system": "A2780ip2 cells", "assay": "Cell survival under anchorage independence, A2780ip2", "type": "cell-based, human", "details": "dose and time course", "description": "as §1"}}}
{"substance": "BMP9: recombinant human bone morphogenetic protein 9 (BMP9/GDF2), TGF-β family ligand", "values": [{"measurement": "apoptosis in cells", "setting": "HEY-T30 cells", "result": 6.8, "unit": "%"}, {"measurement": "SOX2 levels in xenograft tumors", "setting": "SOX2", "result": "overall reduction"}, {"measurement": "effect on OCT4 or NANOG", "setting": "OCT4 or NANOG", "result": "did not have any significant effect"}, {"measurement": "percentage of dead cells", "setting": "[1]", "result": "increase"}, {"measurement": "increase in SOX2 promoter methylation compared with control cells", "setting": "[2]", "result": 2.53}, {"measurement": "overall toxicity (body weight, kidney and liver function tests)", "setting": "[3]", "result": "no notable toxicity"}, {"measurement": "SMAD1 binding at sites p1 and p6 (ChIP)", "setting": "SOX2 promoter; 1 h treatment", "result": "significant enrichment"}, {"measurement": "histone H3K27me3 on the SOX2 promoter (ChIP)", "setting": "SOX2 promoter; PA1, 1 hour rhBMP9", "result": "significantly enriched"}, {"measurement": "decrease in percentage live cells", "setting": "HEY parental cells", "result": "50-65%"}, {"measurement": "decrease in percentage live cells", "setting": "A2780ip2 cells", "result": 30, "unit": "%"}]}
